Like-named read-outs stand apart in the source and are kept apart here.
What was measured:
CCK receptor (pancreas) = biological target: T1, CCK receptor (pancreas) (Rattus norvegicus, UniProt P30551); assay: CCK Receptor Binding (Pancreas): inhibition of ^125 I-CCK-33 binding; design: species or system Male Sprague-Dawley rats; conditions: rat pancreas membranes, ^125 I-CCK-33, 37° C., 30 minutes
T1 construct: The whole pancreas was dissected free of fat tissue and was homogenized; from tissue; host or cells: rat pancreas membranes (Sprague-Dawley)
T1 sequence (P30551 1-444): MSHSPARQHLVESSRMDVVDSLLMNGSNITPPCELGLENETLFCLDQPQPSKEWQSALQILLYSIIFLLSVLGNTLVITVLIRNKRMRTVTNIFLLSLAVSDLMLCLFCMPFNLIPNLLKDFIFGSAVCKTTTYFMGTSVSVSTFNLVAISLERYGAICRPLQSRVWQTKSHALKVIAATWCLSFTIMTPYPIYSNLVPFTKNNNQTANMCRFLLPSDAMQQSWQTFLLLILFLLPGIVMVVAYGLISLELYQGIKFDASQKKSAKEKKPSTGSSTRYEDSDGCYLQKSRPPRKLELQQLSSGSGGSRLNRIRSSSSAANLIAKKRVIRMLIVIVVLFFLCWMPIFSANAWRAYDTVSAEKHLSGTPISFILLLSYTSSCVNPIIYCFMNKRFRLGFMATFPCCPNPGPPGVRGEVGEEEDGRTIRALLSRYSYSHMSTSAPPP
Method in brief: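 Rat (male Sprague-Dawley) pancreatic membranes in 50 mM Tris HCl pH 7.7 with DTT, bacitracin, PMSF and o-phenanthroline; ^125I-Bolton Hunter-labelled CCK-33 as radioligand. Incubation 30 min at 37° C, separation by centrifugation, pellet gamma-counted; Scatchard analysis by diluting ^125I-CCK-33 with increasing CCK-33.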

[1] = biological target: T2, CCK receptor (brain, cerebral cortex) (Cavia porcellus, UniProt H0VZC5); assay: biochemical; assay type: binding, Male Hartley guinea pigs
T2 construct: Cerebral cortex was dissected and used as a receptor source; from tissue; host or cells: guinea pig cerebral cortex membranes (male Hartley)
T2 sequence (H0VZC5 1-426): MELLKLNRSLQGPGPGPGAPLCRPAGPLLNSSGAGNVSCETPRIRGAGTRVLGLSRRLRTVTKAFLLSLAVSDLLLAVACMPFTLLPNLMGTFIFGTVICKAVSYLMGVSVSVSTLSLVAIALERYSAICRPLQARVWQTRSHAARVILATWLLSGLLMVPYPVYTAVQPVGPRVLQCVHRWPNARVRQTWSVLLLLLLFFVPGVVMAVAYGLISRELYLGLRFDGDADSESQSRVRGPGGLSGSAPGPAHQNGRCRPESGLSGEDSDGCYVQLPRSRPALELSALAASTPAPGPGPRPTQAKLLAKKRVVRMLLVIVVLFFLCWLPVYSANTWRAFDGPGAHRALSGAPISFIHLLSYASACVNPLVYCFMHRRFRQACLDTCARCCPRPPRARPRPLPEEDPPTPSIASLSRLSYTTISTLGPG
Method in brief: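 Guinea pig cerebral cortex homogenate as receptor source, with radiolabeled CCK-33 in HEPES buffer containing MgCl2, bacitracin, EGTA and 0.4% BSA. Incubation 2 h at 25°C; bound ligand pelleted by centrifugation and gamma-counted.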

[2] = biological target: T3, Gastrin receptor (gastric glands) (Cavia porcellus, UniProt H0VZC5); assay: Gastrin Receptor Binding in Guinea Pig Gastric Glands; design: species or system guinea pig (male Hartley); conditions: 25° C., 30 minutes
T3 construct: The washed guinea pig gastric glands prepared as above were resuspended; from tissue; host or cells: guinea pig gastric mucosal glands (male Hartley)
T3 sequence (H0VZC5 1-426): T2 sequence (H0VZC5 1-426)

[3] = guinea pig cerebral cortex, ^125 I-CCK-33, 25° C., 2 hours; read-out: IC50 ^125 I-CCK Brain
[4] = ^125 I-gastrin, read-out: IC50 ^125 I-Gastrin Gastric Glands
[5] = IC50 ^125 I-CCK Brain, guinea pig cerebral cortex, ^125 I-CCK-33, 25° C., 2 hours
[6] = IC50 ^125 I-Gastrin Gastric Glands
[7] = read-out: IC50 ^125 I-CCK Pancreas

Row | SMILES | IC50 (CCK receptor (pancreas); IC50 ^125 I-CCK Pancreas) [µM] | IC50 [1, 3] [µM] | IC50 [2, 4] [µM] | IC50 [1, 5] [µM] | IC50 [2, 6] [µM] | IC50 (CCK receptor (pancreas); [7]) [µM] | IC50 ([1]; read-out: IC50 ^125 I-CCK Brain; guinea pig cerebral cortex, ^125 I-CCK-33, 25° C., 2 hours) [µM]
1 | CN1C(=O)C(Cc2cn(C)c3ccccc23)N=C(c2ccccc2)c2ccccc21 (stereo not drawn) [Example 200, 1,3-Dihydro-1-methyl-3-((1-methyl-1H-indol-3-yl)methyl)-5-phenyl-2H-1,4-benzodiazepin-2-one] | 0.1 | 63 | 67 | – | – | – | –
2 | NCCCC[C@H]1N=C(c2ccccc2F)c2ccccc2NC1=O [Example 65, 1,3-Dihydro-5-(2'-fluorophenyl)-3(R)-(4-amino)butyl-2H-1,4-benzodiazepin-2-one] | > 100 | – | – | > 100 | > 1000 | – | –
3 | CCOC(=O)CN1C(=O)C(NC(=O)NC(C)c2ccccc2)N=C(c2ccccc2F)c2ccccc21 (stereo not drawn) [Example 195, 5-(2-Fluorophenyl)-2,3-dihydro-2-oxo-((((1-phenylethyl)amino)carbonyl)amino)-1H-1,4-benzodiazepine-1-acetic acid ethyl ester] | 4.8 | > 0.1 | 0.4 | – | – | – | –
4 | CN1C(=O)C(NC(=O)NC(C)(C)C)N=C(c2ccccc2)c2ccccc21 (stereo not drawn) [Example 260, N-(2,3-Dihydro-1-methyl-2-oxo-5-phenyl-1H-1,4-benzodiazepin-3-yl)-N'-(1,1-dimethylethyl)-urea] | – | – | – | 38 | > 1 | 6.8 | –
5 | O=C(NC1N=C(c2ccccc2F)c2ccccc2NC1=S)OCc1ccccc1 (racemic) [Example 176, 1,3-Dihydro-5-(2-fluorophenyl)-3-(RS)-benzyloxycarbonylamino-2H-1,4-benzodiazeoin-2-thione] | 1 | – | – | 10 | 3.2 | – | –
6 | CCNC(=O)CN1C(=O)C(NC(=O)Nc2ccc(Cl)cc2)N=C(c2ccccc2)c2ccccc21 (stereo not drawn) [Example 224, 3-((((4-Chlorophenyl)amino)carbonyl)amino)-N-ethyl-2,3-dihydro-2-oxo-5-phenyl-1H-1,4-benzodiazepine-1-acetamide] | – | 0.011 | 0.025 | – | – | 2.1 | –
7 | O=C(NC1N=C(c2ccccc2F)c2ccccc2NC1=S)c1ccc(Cl)cc1 (racemic) [Example 180, 1,3-Dihydro-5-(2-fluorophenyl)-3-(RS)-(4-chlorophenyl)carbonylamino-2H-1,4-benzodiazepin-2-thione] | 0.016 | – | – | > 100 | 11 | – | –
8 | CCOC(=O)C(C)N1C(=O)C(NC(=O)OCc2ccccc2)N=C(c2ccccc2)c2ccccc21 (stereo not drawn) [Example 242] | 0.9 | 2.3 | 0.87 | – | – | – | –
9 | CN1C(=O)[C@H](NC(=O)Nc2cccc(Br)c2)N=C(c2ccccc2)c2ccccc21 [Example 282, (R)-N-(2,3-Dihydro-1-methyl-2-oxo-5-phenyl-1H-1,4-benzodiazepin-3-yl)-N'-(3-bromophenyl)-urea] | – | – | – | 0.0038 | 0.0016 | 0.84 | –
10 | CN1C(=O)[C@@H](NC(=O)c2ccc(Cl)cc2)N=C(c2ccccc2F)c2ccccc21 [Example 91, 3(S)-(+)-1,3-Dihydro-3-(4-chlorobenzoylamino)-5-(2-fluorophenyl)-1-methyl-2H-1,4-benzodiazepin-2-one] | – | – | 0.8 | 2.9 | – | 0.0025 | –
11 | CN1C(=O)[C@H](NC(=O)c2ccccc2Cl)N=C(c2ccccc2)c2ccccc21 [Example 151, 3(R)-(+)-3-(2-Chlorobenzoylamino)-1,3-dihydro-1-methyl-5-phenyl-2H-1,4-benzodiazepin-2-one] | – | – | 7.5 | – | – | 11 | 22
12 | CN1C(=O)C(NC(=O)NC2CCCCC2)N=C(c2ccccc2)c2ccccc21 (stereo not drawn) [Example 262, N-Cyclohexyl-N'-(2,3-dihydro-1-methyl-2-oxo-5-phenyl-1H-1,4-benzodiazepin-3-yl)-urea] | – | – | – | 3 | 0.39 | 2.4 | –
13 | CCNC(=O)CN1C(=O)C(NC(=O)OCc2ccccc2)N=C(c2ccccc2)c2ccccc21 (stereo not drawn) [Example 215] | 4.8 | 1.8 | 0.56 | – | – | – | –
14 | COc1ccc(NC(=O)NC2N=C(c3ccccc3)c3ccccc3N(C)C2=O)cc1 (stereo not drawn) [Example 253, N-(2,3-Dihydro-1-methyl-2-oxo-5-phenyl-1H-1,4-benzodiazepin-3-yl)-N'-(4-methoxvphenyl)-urea] | 0.16 | – | – | 0.02 | 0.045 | – | –
15 | CN1C(=O)C(CC(=O)Nc2ccc(Cl)cc2)N=C(c2ccccc2)c2ccccc21 (stereo not drawn) [Example 297, N-(4-Chlorophenyl)-2,3-dihydro-1-methyl-2-oxo-5-phenyl-1H-1,4-benzodiazepine-3-acetamide] | 1.8 | 3.7 | 5.2 | – | – | – | –
16 | COc1cccc(NC(=O)NC2N=C(c3ccccc3)c3ccc(C)cc3N(C)C2=O)c1 (stereo not drawn) [Example 295, N-(3-Methoxyphenyl)-N'-(2,3-dihydro-1,8-dimethyl-2-oxo-5-phenyl-1H-1,4-benzodiazepin-3-yl)-urea] | 0.003 | 0.015 | 0.034 | – | – | – | –
17 | O=C(c1ccccc1F)c1ccccc1NC(=O)C(CN1C(=O)c2ccccc2C1=O)N1C(=O)c2ccccc2C1=O (racemic) [Example 62, 2-N-[2(RS)-3-diphthalylaminopropanoyl]amino-2'-fluorobenzophenone] | – | > 100 | > 1000 | – | – | > 100 | –
18 | O=C(Nc1ccc(Cl)cc1)NC1N=C(c2ccccc2)c2ccccc2N(CC(=O)OCc2ccccc2)C1=O (stereo not drawn) [Example 208, 3-((((4-Chlorophenyl)amino)carbonyl)amino)-2,3-dihydro-2-oxo-5-phenyl-1H-1,4-benzodiazepine-1-acetic acid phenylmethyl ester] | – | 0.044 | 0.14 | – | – | 1.3 | –
19 | CN1C(=O)C(C(=O)c2ccsc2)N=C(c2ccccc2)c2ccccc21 (racemic) [Example 48, 1,3-Dihydro-1-methyl-5-phenyl-3-(RS)-(3-thienoyl)-2H-1,4-benzodiazepin-2-one] | 54 | 33 | 8.4 | – | – | – | –
20 | O=C(NC1N=C(c2ccccc2)c2ccccc2NC1=O)C1Cc2ccccc2N1 (stereo not drawn) [Example 133, 1,3-Dihydro-3-(RS)-(2-indolinecarbonylamino)-5-phenyl-2-H-1,4-benzodiazepin-2-one] | – | – | – | > 40 | 110 | 0.9 | –
21 | CN1C(=O)C(NC(=O)c2ccc(Cl)cc2N)N=C(c2ccccc2)c2ccccc21 (stereo not drawn) [Example 196, 3-N-(2,3-Dihydro-1-methyl-2-oxo-5-phenyl-1H-1,4-benzodiazepine-3-yl)-2-amino-4-chlorobenzamide] | – | – | – | 2.4 | 1.9 | 0.0009 | –
22 | CCOC(=O)CCN1C(=O)C(NC(=O)Nc2ccc(Cl)cc2)N=C(c2ccccc2)c2ccccc21 (stereo not drawn) [Example 230, 3-((((4-Chlorophenyl)amino)carbonyl)amino)-2,3-dihydro-2-oxo-5-phenyl-1H-1,4-benzodiazepine-1-propanoic acid ethyl ester] | – | – | – | 0.0051 | 0.035 | 0.49 | –
23 | O=C(NC1N=C(c2ccccc2F)c2ccccc2NC1=O)OCc1ccccc1 (racemic) [Example 175, 1,3-Dihydro-5-(2-fluorophenyl)-3(RS)-benzyloxycarbonylamino-2H-1,4-benzodiazepin-2-one] | 0.7 | 15 | 8 | – | – | – | –
24 | C[C@@H](NC(=O)NC1N=C(c2ccccc2)c2ccccc2N(C)C1=O)c1ccccc1 (stereo partly drawn) [Example 261, N-(2,3-Dihydro-1-methyl-2-oxo-5-phenyl-1H-1,4-benzodiazepin-3-yl)-N'-((R)1-phenylethyl)-urea] | 0.43 | – | 3.2 | 11 | – | – | –
